Source: paper PMC4159282, “Gi Proteins Regulate Adenylyl Cyclase Activity Independent of Receptor Activation” (PLoS ONE, 2014)

Target: T1, β2-adrenoceptor (β2AR) (Rattus norvegicus, UniProt P10608)
T1 construct: gene Adrb2
T1 sequence (P10608 whole entry): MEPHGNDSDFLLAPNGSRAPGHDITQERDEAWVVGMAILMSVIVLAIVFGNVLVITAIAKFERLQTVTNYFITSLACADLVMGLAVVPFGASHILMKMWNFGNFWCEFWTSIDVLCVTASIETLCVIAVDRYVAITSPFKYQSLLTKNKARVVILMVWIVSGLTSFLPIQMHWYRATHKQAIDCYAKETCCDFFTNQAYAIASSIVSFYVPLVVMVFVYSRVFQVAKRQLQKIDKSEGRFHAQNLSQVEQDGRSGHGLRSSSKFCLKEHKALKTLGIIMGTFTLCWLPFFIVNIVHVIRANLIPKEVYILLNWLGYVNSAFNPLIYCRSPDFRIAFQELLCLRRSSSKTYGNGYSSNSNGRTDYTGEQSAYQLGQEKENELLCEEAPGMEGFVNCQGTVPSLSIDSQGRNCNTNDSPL

Structure (SMILES): C[C@H](Cc1ccc(O)cc1)NC[C@H](O)c1cc(O)cc(O)c1 [RR, (R,R)-fenoterol]
- EC50: 140 ± 48 nM

Structure (SMILES): C[C@@H](Cc1ccc(O)cc1)NC[C@H](O)c1cc(O)cc(O)c1 (racemic) [RS, (R,S)-fenoterol]
- EC50: 3500 ± 500 nM
